Assay results as given in US11135320B2, “Radioligands for pretargeted pet imaging and methods of their therapeutic use” (priority 2015, dated 2021).
Several values for one entry are separate records, joined by “and”; a condition that tells them apart may be missing. Equal entries are not always repeated.

Tested on: subcutaneous SW1222 xenografts (A33 antigen-expressing human colorectal carcinoma)
Assay: Pretargeted biodistribution with huA33-TCO and ^64Cu-tetrazine radioligand
Format: in vivo, athymic nude mice
Procedure: Female athymic nude mice bearing subcutaneous SW1222 (right shoulder) xenografts (100-150 mm^3, 18-21 days post-inoculation) were administered 100 μg (0.66 nmol) huA33-TCO (in 200 μL 0.9% sterile saline) via intravenous tail vein injection. […] The specific activity of the radiotracer was adjusted using cold ^natCu-Tz-SarAr such that the molar ratio of Tzinjected:huA^33injected=1:1. Animals (n=4 per group) were euthanized by CO2(g) asphyxiation at 1, 4, 12, and 24 h after injection. After asphyxiation, 13 tissues were removed, rinsed in water, dried in air for 5 min, weighed, and counted in a gamma counter calibrated for ^64Cu. Counts were converted into activity using a calibration curve generated from known standards. Count data were background- and decay-corrected to the time of injection, and the percent injected dose per gram (% ID/g) for each tissue sample was calculated by normalization to the total activity injected. Contents within the stomach, small intestine, and large intestine were not removed for the measurements.
Contents within the stomach, small intestine, and large intestine were not removed for the measurements. […] Zeglis, B. M. et al. “A pretargeted PET imaging strategy based on bioorthogonal Diels-Alder click chemistry.” Journal of Nuclear Medicine. 54, 1389-1396 (2013). ©2013 by the Society of Nuclear Medicine and Molecular Imaging, Inc.
Zeglis, B. M. et al. “A pretargeted PET imaging strategy based on bioorthogonal Diels-Alder click chemistry.” Journal of Nuclear Medicine. 54, 1389-1396 (2013). ©2013 by the Society of Nuclear Medicine and Molecular Imaging, Inc.
(§1) Female athymic nude mice bearing subcutaneous SW1222 (right shoulder) xenografts (100-150 mm^3, 18-21 days post-inoculation) were administered 100 μg (0.66 nmol) huA33-TCO (in 200 μL 0.9% sterile saline) via intravenous tail vein injection. After an accumulation interval of 48 h, the same mice were then administered ^64Cu-Tz-SarAr (300-350 μCi in 200 μL 0.9% sterile saline) via intravenous tail vein injection (t=0). The specific activity of the radiotracer was adjusted using cold ^natCu-Tz-SarAr such that the molar ratio of Tzinjected:huA^33injected=1:1. Animals (n=4 per group) were euthanized by CO2(g) asphyxiation at 1, 4, 12, and 24 h after injection. After asphyxiation, tissues were removed, rinsed in water, dried in air for 5 min, weighed, and counted in a gamma counter calibrated for ^64Cu. Counts were converted into activity using a calibration curve generated from known standards. Count data were background- and decay-corrected to the time of injection, and the percent injected dose per gram (% ID/g) for each tissue sample was calculated by normalization to the total activity injected. Contents within the stomach, small intestine, and large intestine were not removed for the measurements.
as §1, with “120” for “48”, “Contents within the stomach, small intestine, and large intestine were not removed for the measurements.” left out

[1] = 48 h accumulation interval, 12 h p.i.
[2] = 48 h accumulation interval, 24 h p.i.
[3] = 120 h accumulation interval, 1 h p.i.
[4] = 120 h accumulation interval, 4 h p.i.
[5] = 120 h accumulation interval, 12 h p.i.
[6] = 120 h accumulation interval, 24 h p.i.

`NC12CNCCNCC(NCc3ccc(CNC(=O)CCCC(=O)NCc4ccc(-c5nncnn5)cc4)cc3)(CNCCNC1)CNCCNC2.[64Cu+2]` [^64Cu-Tz-SarAr] was tested, and the Blood activity concentration [1] was 1.81 ± 0.54 % ID/g, the Bone activity concentration [1] was 0.3 ± 0.07 % ID/g and the Heart activity concentration [1] was 0.88 ± 0.33 % ID/g. The Kidney activity concentration [1] was 2.04 ± 0.36 % ID/g, the “Large Intestine activity concentration” value [1] was 0.22 ± 0.08 % ID/g and the Liver activity concentration [1] was 1.08 ± 0.32 % ID/g. For the same molecule, the Lung activity concentration [1] was 1.00 ± 0.18 % ID/g, the Muscle activity concentration [1] was 0.15 ± 0.02 % ID/g and the “Small Intestine activity concentration” value [1] was 0.3 ± 0.08 % ID/g. It also gave a Spleen activity concentration [1] of 0.56 ± 0.11 % ID/g, a Stomach activity concentration [1] of 0.12 ± 0.04 % ID/g and a Tumor activity concentration [1] of 4.94 ± 1.12 % ID/g. The “Tumor/Blood activity concentration ratio” value [1] was 2.72 ± 1.03, the “Tumor/Bone activity concentration ratio” value [1] was 16.24 ± 5.16 and the “Tumor/Heart activity concentration ratio” value [1] was 5.62 ± 2.47. For the same molecule, the “Tumor/Kidney activity concentration ratio” value [1] was 2.42 ± 0.7, the “Tumor/Large Intestine activity concentration ratio” value [1] was 22.66 ± 10.19 and the “Tumor/Liver activity concentration ratio” value [1] was 4.58 ± 1.69. For the same molecule, the “Tumor/Lung activity concentration ratio” value [1] was 4.94 ± 1.45, the “Tumor/Muscle activity concentration ratio” value [1] was 33.88 ± 9.31 and the “Tumor/Small Intestine activity concentration ratio” value [1] was 16.47 ± 5.62. The “Tumor/Spleen activity concentration ratio” value [1] was 8.75 ± 2.61, the “Tumor/Stomach activity concentration ratio” value [1] was 41.88 ± 18.35 and the Blood activity concentration [2] was 0.92 ± 0.31 % ID/g. It also gave a Bone activity concentration [2] of 0.18 ± 0.05 % ID/g, a Heart activity concentration [2] of 0.45 ± 0.08 % ID/g and a Kidney activity concentration [2] of 1.47 ± 0.43 % ID/g. For the same molecule, the “Large Intestine activity concentration” value [2] was 0.16 ± 0.03 % ID/g, the Liver activity concentration [2] was 1.28 ± 0.33 % ID/g and the Lung activity concentration [2] was 1.05 ± 0.51 % ID/g. The Muscle activity concentration [2] was 0.11 ± 0.04 % ID/g, the “Small Intestine activity concentration” value [2] was 0.22 ± 0.07 % ID/g and the Spleen activity concentration [2] was 0.5 ± 0.1 % ID/g. For the same molecule, the Stomach activity concentration [2] was 0.15 ± 0.03 % ID/g, the Tumor activity concentration [2] was 4.85 ± 0.67 % ID/g and the “Tumor/Blood activity concentration ratio” value [2] was 5.27±1.92. The “Tumor/Bone activity concentration ratio” value [2] was 26.55 ± 7.58, the “Tumor/Heart activity concentration ratio” value [2] was 10.9 ± 2.55 and the “Tumor/Kidney activity concentration ratio” value [2] was 3.31 ± 1.07. The “Tumor/Large Intestine activity concentration ratio” value [2] was 29.58 ± 6.11, the “Tumor/Liver activity concentration ratio” value [2] was 3.8 ± 1.11 and the “Tumor/Lung activity concentration ratio” value [2] was 4.61 ± 2.32. For the same molecule, the “Tumor/Muscle activity concentration ratio” value [2] was 44.18 ± 17.61, the “Tumor/Small Intestine activity concentration ratio” value [2] was 21.72 ± 7.59 and the “Tumor/Spleen activity concentration ratio” value [2] was 9.8 ± 2.47. The “Tumor/Stomach activity concentration ratio” value [2] was 32.81 ± 8.37, the Blood activity concentration [3] was 1.39 ± 0.19 % ID/g and the Bone activity concentration [3] was 0.21 ± 0.03 % ID/g. For the same molecule, the Heart activity concentration [3] was 0.52 ± 0.06 % ID/g, the Kidney activity concentration [3] was 1.80 ± 0.12 % ID/g and the “Large Intestine activity concentration” value [3] was 0.29 ± 0.16 % ID/g. For the same molecule, the Liver activity concentration [3] was 1.65 ± 0.07 % ID/g, the Lung activity concentration [3] was 1.41 ± 0.21 % ID/g and the Muscle activity concentration [3] was 0.20 ± 0.03 % ID/g. The “Small Intestine activity concentration” value [3] was 0.34 ± 0.03 % ID/g, the Spleen activity concentration [3] was 0.60 ± 0.13 % ID/g and the Stomach activity concentration [3] was 0.32 ± 0.13 % ID/g. The Tumor activity concentration [3] was 3.61 ± 0.45 % ID/g, the “Tumor/Blood activity concentration ratio” value [3] was 2.61 ± 0.48 and the “Tumor/Bone activity concentration ratio” value [3] was 17.27 ± 3.03. The “Tumor/Heart activity concentration ratio” value [3] was 7.00 ± 1.22, the “Tumor/Kidney activity concentration ratio” value [3] was 2.01 ± 0.29 and the “Tumor/Large Intestine activity concentration ratio” value [3] was 12.39 ± 7.14. The “Tumor/Liver activity concentration ratio” value [3] was 2.19 ± 0.29, the “Tumor/Lung activity concentration ratio” value [3] was 2.55 ± 0.49 and the “Tumor/Muscle activity concentration ratio” value [3] was 18.41 ± 3.47. For the same molecule, the “Tumor/Small Intestine activity concentration ratio” value [3] was 10.53 ± 1.58, the “Tumor/Spleen activity concentration ratio” value [3] was 6.02 ± 1.46 and the “Tumor/Stomach activity concentration ratio” value [3] was 11.37 ± 4.88. The Blood activity concentration [4] was 1.05±0.29 % ID/g, the Bone activity concentration [4] was 0.16 ± 0.04 % ID/g and the Heart activity concentration [4] was 0.43 ± 0.11 % ID/g. For the same molecule, the Kidney activity concentration [4] was 2.10 ± 0.20 % ID/g, the “Large Intestine activity concentration” value [4] was 0.20 ± 0.13 % ID/g and the Liver activity concentration [4] was 1.16 ± 0.39 % ID/g. The Lung activity concentration [4] was 0.91 ± 0.22 % ID/g, the Muscle activity concentration [4] was 0.11 ± 0.05 % ID/g and the “Small Intestine activity concentration” value [4] was 0.22 ± 0.03 % ID/g. For the same molecule, the Spleen activity concentration [4] was 0.50 ± 0.05 % ID/g, the Stomach activity concentration [4] was 0.25 ± 0.12 % ID/g and the Tumor activity concentration [4] was 3.6±0.7 % ID/g and 3.55 ± 0.74 % ID/g. For the same molecule, the “Tumor/Blood activity concentration ratio” value [4] was 3.37 ± 1.16, the “Tumor/Bone activity concentration ratio” value [4] was 21.53 ± 7.14 and the “Tumor/Heart activity concentration ratio” value [4] was 8.24 ± 2.71. The “Tumor/Kidney activity concentration ratio” value [4] was 1.69 ± 0.39, the “Tumor/Large Intestine activity concentration ratio” value [4] was 17.82 ± 12.22 and the “Tumor/Liver activity concentration ratio” value [4] was 3.06 ± 1.2. For the same molecule, the “Tumor/Lung activity concentration ratio” value [4] was 3.89 ± 1.23, the “Tumor/Muscle activity concentration ratio” value [4] was 32.58 ± 16.17 and the “Tumor/Small Intestine activity concentration ratio” value [4] was 16.22 ± 3.91. The “Tumor/Spleen activity concentration ratio” value [4] was 7.03 ± 1.64, the “Tumor/Stomach activity concentration ratio” value [4] was 14.04 ± 7.07 and the Blood activity concentration [5] was 0.44 ± 0.14 % ID/g. For the same molecule, the Bone activity concentration [5] was 0.11 ± 0.04 % ID/g, the Heart activity concentration [5] was 0.34 ± 0.20 % ID/g and the Kidney activity concentration [5] was 2.11 ± 0.13 % ID/g. For the same molecule, the “Large Intestine activity concentration” value [5] was 0.09 ± 0.03 % ID/g, the Liver activity concentration [5] was 0.96 ± 0.09 % ID/g and the Lung activity concentration [5] was 0.59 ± 0.27 % ID/g. For the same molecule, the Muscle activity concentration [5] was 0.08 ± 0.04 % ID/g, the “Small Intestine activity concentration” value [5] was 0.15 ± 0.07 % ID/g and the Spleen activity concentration [5] was 0.34 ± 0.14 % ID/g. For the same molecule, the Stomach activity concentration [5] was 0.09 ± 0.03 % ID/g, the Tumor activity concentration [5] was 3.29 ± 0.40 % ID/g and the “Tumor/Blood activity concentration ratio” value [5] was 7.46 ± 2.54. The “Tumor/Bone activity concentration ratio” value [5] was 29.07 ± 11.14, the “Tumor/Heart activity concentration ratio” value [5] was 9.56 ± 5.64 and the “Tumor/Kidney activity concentration ratio” value [5] was 1.56 ± 0.21. For the same molecule, the “Tumor/Large Intestine activity concentration ratio” value [5] was 35.43 ± 12.17, the “Tumor/Liver activity concentration ratio” value [5] was 3.43 ± 0.52 and the “Tumor/Lung activity concentration ratio” value [5] was 5.55 ± 2.62. For the same molecule, the “Tumor/Muscle activity concentration ratio” value [5] was 38.74 ± 20.11, the “Tumor/Small Intestine activity concentration ratio” value [5] was 21.47 ± 9.60 and the “Tumor/Spleen activity concentration ratio” value [5] was 9.63 ± 4.03. For the same molecule, the “Tumor/Stomach activity concentration ratio” value [5] was 38.07 ± 12.42, the Blood activity concentration [6] was 0.75 ± 0.23 % ID/g and the Bone activity concentration [6] was 0.25 ± 0.08 % ID/g. For the same molecule, the Heart activity concentration [6] was 0.40 ± 0.16 % ID/g, the Kidney activity concentration [6] was 1.90 ± 0.17 % ID/g and the “Large Intestine activity concentration” value [6] was 0.16 ± 0.04 % ID/g. For the same molecule, the Liver activity concentration [6] was 1.06 ± 0.16 % ID/g, the Lung activity concentration [6] was 0.85 ± 0.29 % ID/g and the Muscle activity concentration [6] was 0.14 ± 0.05 % ID/g. For the same molecule, the “Small Intestine activity concentration” value [6] was 0.17 ± 0.06 % ID/g, the Spleen activity concentration [6] was 0.69 ± 0.17 % ID/g and the Stomach activity concentration [6] was 0.15 ± 0.08 % ID/g. The Tumor activity concentration [6] was 4.34 ± 0.98 % ID/g, the “Tumor/Blood activity concentration ratio” value [6] was 5.74±2.17 and the “Tumor/Bone activity concentration ratio” value [6] was 17.16 ± 6.90. The “Tumor/Heart activity concentration ratio” value [6] was 10.76 ± 4.94, the “Tumor/Kidney activity concentration ratio” value [6] was 2.29 ± 0.56 and the “Tumor/Large Intestine activity concentration ratio” value [6] was 26.48 ± 8.29. For the same molecule, the “Tumor/Liver activity concentration ratio” value [6] was 4.09 ± 1.13, the “Tumor/Lung activity concentration ratio” value [6] was 5.09 ± 2.06 and the “Tumor/Muscle activity concentration ratio” value [6] was 30.39 ± 11.94. For the same molecule, the “Tumor/Small Intestine activity concentration ratio” value [6] was 25.34 ± 10.4, the “Tumor/Spleen activity concentration ratio” value [6] was 6.26 ± 2.09 and the “Tumor/Stomach activity concentration ratio” value [6] was 29.21 ± 17.97.
